The values below come from a melting point compilation (Tetko et al.; mined from patent text by program, amines drawn as free bases though some values may be those of a salt).

The melting point is the temperature, or range, at which the solid turns liquid. `CCCc1cc(Cl)c2oc(Cc3ccc(OC(C)=O)cc3)c(C)c2c1OC(C)=O`: the melting point fell in the range of 119 to 120 °C.

The molecule `Cn1ccc2c1CC(C(=O)OCc1ccccc1)C1C(=O)NC(=O)C21` (configuration not stated) gave a melting point of 189 to 193 °C.

`N=C(NC(=O)OCc1ccccc1)c1ccc(C(=O)NCCC(=O)NCCC(=O)OCc2ccccc2)cc1` displayed a melting point of 165 to 166 °C.

On to `CN(C)Cc1ccc(-c2nc(C(=O)Nc3nccs3)c(-c3ccc(Cl)cc3)[nH]2)cc1`, for which the melting point was 143 to 145 °C.

Take `Nc1nc(N)c2ncn(C3C=CC(CO)C3)c2n1` (configuration not stated): the melting point fell in the range of 152 to 155 °C.

With `CN1CCN(c2n[nH]c3ccc(Cl)cc23)CC1`, the melting point was 172 to 174 °C.

`Cc1cc(COc2ccc(S(=O)(=O)NC[C@@H](C(=O)NO)N3CCOCC3)cc2)c2ccccc2n1` registered a melting point of 138 °C.

`COC(=O)C(=CC=Cc1cc([N+](=O)[O-])ccc1Cl)C(=O)OC` registered a melting point of 167 to 168 °C.

On to `CCN(CC)CCOc1ccc(CCNC(=O)c2ccc(-c3ccc(Cl)cc3)cc2)cc1`, for which the melting point lay within 178 to 179 °C.

The molecule `Cn1c(=O)c2cnccc2n(C)c1=O` yielded a melting point of 174 to 175 °C.

In the case of `CCOC(=O)C1=C(N)NC(N)=C(C(=O)OCC)C1c1ccccc1OC`, the melting point came out at 147 °C.

The molecule `CC(C)CCNCCCS(=O)(=O)O` registered a melting point of 220 °C.

Molecule `CC(=O)OC1CSC(Oc2cc(-c3ccc(F)nc3)cnc2Cl)C(OC(C)=O)C1OC(C)=O` (configuration not stated) had a melting point of 70 to 90 °C.

For the molecule `O=Cc1ccc(-c2cc(-c3c(-c4ccccn4)nc4ccccn34)ccn2)cc1`, the melting point is 216 to 218 °C.

`O=C(O)CCc1ccc(SCCNS(=O)(=O)c2ccc(Cl)cc2)cc1` came in with a melting point of 117 to 119 °C.

In turn, `Cc1nc2cccc3n(CCCCCNS(=O)(=O)C(F)(F)F)c(=O)c1n23` displayed a melting point of 149 to 150 °C.

For the molecule `CC(C)(C)OC(=O)NC(Cc1ccc(-c2cccc(CNCC(=O)c3ccccc3)c2)cc1)C(=O)O` (configuration not stated), the melting point is 80 °C.

As for `CCCCc1c(C(=O)OCC)cc(O)c2c(OC)cccc12`, the melting point lay in the range of 80 to 82 °C.

Take `COC(=O)NNc1cc(C)c(-c2cccc([N+](=O)[O-])c2)nn1`: the melting point lay within 198 to 199 °C.

Take `CCOC(=O)c1ccc(CSc2nnc(S)s2)cc1`: the melting point fell in the range of 114 to 115 °C.

As to `Cc1ccc(S(=O)(=O)CCCC(=O)c2ccc(F)cc2)cc1`, the melting point is 114 to 116 °C.

`CN(CC#N)S(=O)(=O)c1cc(-n2c(=O)cc(C(F)(F)F)n(C)c2=O)c(F)cc1Cl` returned a melting point of 155 to 157 °C.

Molecule `CC(=O)Nc1ccc(C#Cc2ccc(N3CC4CCC(C3)N4C)nn2)cc1` had a melting point of 292 °C.

`CS(=O)(=O)c1cc(C(=O)N=C(N)N)cc(-n2cccc2)c1` returned a melting point of 235 to 236 °C.

The molecule `Cc1c(C(F)(F)C(F)(F)F)oc2c(C=O)cccc12` displayed a melting point of 78 °C.

`O=c1oc(C(F)(F)F)ccc1-c1ccc(Cl)cc1F`: the melting point lay in the range of 107 to 108 °C.

The molecule `CCN(CC)CCCNc1ncc2cc(-c3c(Cl)cccc3Cl)c(=N)n(C)c2n1` came in with a melting point of 154 to 156 °C.

The molecule `CC(C)(CCBr)CC(=O)O` returned a melting point of 53 to 55 °C.

Regarding `CCOC(=O)c1cccc(CCC(CO)n2cnc(C(N)=O)c2)c1` (configuration not stated), the melting point was in the range of 92 to 95 °C.

`c1ccc2nc(CCN3CCc4[nH]c5ccccc5c4C3)ccc2c1` yielded a melting point of 195 to 197 °C.

For the molecule `O=C(C[N+](=O)[O-])c1ccc2c(c1)CCN2`, the melting point was 172 to 174 °C.

Take `Brc1ccc2c(c1)N=C(N1CCN(Cc3ccccc3)CC1)c1cccc3c1N2CC3`: the melting point lay within 129 to 131 °C.

As to `O=C(N[C@H](Cc1ccc(C(F)(F)F)cc1)[C@@H](O)c1ccc(F)cc1)c1cccc2cccc(Br)c12` (racemic), the melting point fell in the range of 191 to 192 °C.

As to `CCOC(=O)CCCn1c(C(=O)C2CCN(CCC3(c4ccc(Cl)c(Cl)c4)CCN(C(=O)c4cc(OC)c(OC)c(OC)c4)C3)CC2)nc2ccccc21` (configuration not stated), the melting point is 58 to 65 °C.

As for `Cc1oc(-c2ccccc2)nc1COc1ccc(Cn2cc(CCC(=O)O)c(OC(C)C)n2)cc1`, the melting point lay in the range of 106 to 107 °C.

In turn, `CC(C)(C)NC(=O)[C@H](Cc1ccc([N+](=O)[O-])cc1)NC(=O)OC(C)(C)C` showed a melting point of 158 to 159 °C.

The molecule `C#CCOc1ccc(C(=O)OC)c(O)c1` registered a melting point of 142 °C.

In the case of `O=C(O)COc1cccc2c1CCc1sc(Cc3ccccc3)nc1-2`, the melting point fell in the range of 146 to 149 °C.

In the case of `CN1CCc2c([nH]c3ccc(NS(=O)(=O)c4c(Cl)nc5sccn45)cc23)C1`, the melting point fell in the range of 232 to 233 °C.

For the molecule `O=C(Nc1c(C(O)(C(F)(F)F)C(F)(F)F)ccc2ccccc12)C1CCC1`, the melting point fell in the range of 185 to 186 °C.

The molecule `COc1cccc(C(=O)NN2C(c3ccccc3)=NOC2(C)C)c1C` registered a melting point of 141 to 142 °C.

In the case of `CCOC(=O)c1cc(CC)sc1Nc1ccc(C(F)(F)F)cc1[N+](=O)[O-]`, the melting point was determined as 102 °C.

`CC(CCCc1ccccc1)n1nnc2c(=O)[nH]c(Cc3ccccc3)nc21` (configuration not stated) had a melting point of 112 °C.

As to `Cc1cc(Cl)c(C)cc1O`, the melting point was 74 to 75 °C.

Molecule `CC(=O)Oc1ccccc1C(=O)NC(Cl)C(Cl)(Cl)Cl` (configuration not stated) displayed a melting point of 88 to 90 °C.

The molecule `Cc1ccc(CCC(=O)CC(=O)CCc2ccc(C)cc2)cc1` returned a melting point of 45.6 to 46.8 °C.

With `CC(Cn1cnnn1)n1nnc2cc3c(=O)n(C4CC4)nnc3cc2c1=O` (configuration not stated), the melting point was in the range of 233 to 235 °C.

The molecule `CCCCCCCCCCCCCCCc1cc2c(C(=O)OCC)cccc2[nH]1` displayed a melting point of 42 to 45 °C.

The molecule `O=C(O)C(=O)Nc1cc(-c2ccc(-c3cccc4c3oc3ccccc34)cc2)cn(Cc2ccccc2)c1=O` displayed a melting point of 220 to 223 °C.

With `O=C/C=C/C=C(c1ccccc1)c1ccccc1`, the melting point lay within 71 to 72 °C.

`CS(=O)(=O)c1ccc(Oc2ccc(Cl)c(Cl)c2)nc1` gave a melting point of 120 to 121 °C.

`C[Si](C)(C)C#Cc1ccc2c(c1)C(c1ccccc1)=NCc1c(C(=O)OCC(F)(F)F)ncn1-2` yielded a melting point of 107 to 110 °C.

On to `CC[C@H](C)C(OCc1ccccc1F)[C@H]1[C@H]([N+](=O)[O-])[C@@H](c2cccs2)N[C@@H]1C(=O)NCCC(=O)O` (some centres not stated), for which the melting point was in the range of 94 to 96 °C.

`COc1ccc(-c2c(C(=O)CC(C)C)c(C)nc3cc(OC)c(OC)cc23)cc1OC` showed a melting point of 135 to 137 °C.

With `CC1=C(C(=O)OC(C)C)C(c2cccc([N+](=O)[O-])c2)n2c(cc(=O)n2C(=O)c2ccccc2)N1` (configuration not stated), the melting point is 201 to 203 °C.

Molecule `CC(=O)Nc1c(C(=O)c2ccccc2)[nH]c2ccc([N+](=O)[O-])cc12` came in with a melting point of 210 to 212 °C.

`O=c1[nH]c2ccc(CCCNCC[C@H]3CC[C@H](c4ccc(F)cc4)CC3)cc2o1` came in with a melting point of 99 to 109 °C.

`CC(C)n1nc(-c2cnc(N)nc2-c2ccccc2F)ccc1=O` registered a melting point of 239 to 240 °C.

Molecule `OCCOCC=C(c1ccc(Cl)cc1)c1ccc(Cl)cc1` had a melting point of 93 to 95 °C.

For `Cc1cc(OCC(F)(F)F)c(Cl)cc1[N+](=O)[O-]`, the melting point is 76 to 79 °C.

In turn, `CCc1nn2ccc3oc(C)cc3c2c1CO` registered a melting point of 127 to 129 °C.

`CCS(=O)(=O)Nc1ccc2[nH]cc(C3CCN(C)CC3)c2c1` displayed a melting point of 176 to 178 °C.
